Earlier results on one compound are cited in US20220409829A1, “ANTIVIRAL THAT DESTROYS DNA AND/OR RNA OF VIRUSES AND VIROIDS” (priority 2021, published 2022).

For series [1] the following is noted: within 10 minutes; inhalation; FIG. 4.
For series [2] the following is noted: FIG. 5.
For series [3] the following is noted: FIG. 5. The source holds these as a separate data set.

Consider `[N-]=[N+]=O` [nitrous oxide], for which the agranulocytosis entry in the series on bone marrow (after 4 days of exposure) is “apparent”. For the same compound, the “Megaloblastic changes in bone marrow” value in the series with bone marrow (exposure to anesthetic concentrations for 24 hours) is “observed”. The “equilibration (Fa/Fi)” value in series [1] is “approximately 90%”. In addition, the minimum alveolar concentration in series [2] is 105%. The blood/gas partition coefficient in series [3] was 0.46.
